In patent US20240335548A1, “MACROMOLECULES” (Starpharma Pty Ltd, priority 2011, published 2024):
Like-named read-outs stand apart in the source and are kept apart here.

Key:
[1] = Water solubility study on drug loaded dendrimers; type: physicochemical; conditions: for Water solubility of dendrimer: deionised water, until full dissolution; for Equivalent drug solubility on dendrimer: water solubility x % drug loading/100
Description: Protocol: To 30 mg of dendrimer (freeze-dried from water) was added 100 μL of deionised water. After mixing for 10 minutes, additional aliquots of water (10-30 μL per addition) were added with vortexing and incubation for 10 mins until full dissolution was obtained. This amount is represented in Table 1 as the water solubility of the dendrimer. The equivalent drug solubility is determined by multiplying the % drug loading/100 and is represented in Table 1 (column 3) as Equivalent drug solubility on dendrimer. Finally, the fold increase is obtained by dividing the Equivalent drug solubility on dendrimer by the solubility of the drug and is represented in Table 1 (column 4).

[2] = Plasma stability study: docetaxel release in mouse plasma; type: in vitro ADME; conditions: 37° C.
Description: Protocol: To 0.5 mL of mouse plasma was added 0.1 mL of dendrimer solution (2 mg/mL, drug equivalent in saline). The mixtures were vortexed (30 s) then incubated at 37° C. At various timepoints (0.5, 2.5, 4.5, 22 hours) 0.1 mL aliquots were removed and added to 0.2 mL ACN. The resulting mixtures were vortexed (30 s), centrifuged (10 min, 4° C.) filtered and analysed by HPLC (C8, 3.9×150 mm, 5 μm, wavelength=243 nm, 10 μL injections, gradient: 40-80% ACN/H2O (1-7 min), 80% ACN (7-9 min), 80-40% ACN (9-11 min), 40% ACN (11-15 min), 10 mM ammonium formate, pH 7.40) which when compared against a standard (2 mg//mL) provided the concentration of free docetaxel in the sample.

ES2 (Ovarian) = assay: Cell growth inhibition SRB assay; type: cell-based
Description: (§1) All solutions were prepared in saline (except docetaxel which was made in ethanol). All solutions were stored at −20° C. All values were based on the equivalent drug loading.

H460 (Lung) = assay: Cell growth inhibition SRB assay; type: cell-based
Description: as §1

PC-3 (Prostate) = assay: Cell growth inhibition SRB assay; type: cell-based
Description: as §1

MDA-MB-231 tumours = assay: Xenograft MDA-MB-231 efficacy study; type: in vivo, female Balb/c nude mice
[3] = day 16, one day after final dose
Description: The 20 mice were randomised into 5 groups of four mice (mean tumour volume ˜90 mm^3). Animals were eye bled in the morning for baseline blood cell counts and then drug dosing commenced later that day (day 1). […] A second eye bleed was performed on day 11 (Table 7 A-C). Mice were killed one day following the final drug dose (day 16).

[4] = Pharmacokinetic analysis, plasma half-life after IV administration; conditions: tritium labelled, IV administration into rats
Description: The plasma half-lives of tritium labelled docetaxel and the construct from Experiment 8 (c) (prepared using tritium labelled docetaxel) after IV administration into rats were determined (Kaminskas, L. M., Boyd, B. J., Karellas, P., Krippner, G. Y., Lessene, R., Kelly, B and Porter, C. J. H. “The Impact of Molecular Weight and PEG Chain Length on the Systemic Pharmacokinetics of PEGylated Poly-L-Lysine Dendrimers” Molecular Pharm. 2008, 5, 449-463).

A2058 (Melanoma) = assay: Cell growth inhibition SRB assay; type: cell-based
Description: as §1

A549 (Lung) = assay: Cell growth inhibition SRB assay; type: cell-based
Description: as §1

DU145 (Prostate) = assay: Cell growth inhibition SRB assay; type: cell-based
Description: as §1

HCT116 (Colon) = assay: Cell growth inhibition SRB assay; type: cell-based
Description: as §1

HT29 (Colon) = assay: Cell growth inhibition SRB assay; type: cell-based
Description: as §1

MCAS (Ovarian) = assay: Cell growth inhibition SRB assay; type: cell-based
Description: as §1

MDA-MB-231 (Breast) = assay: Cell growth inhibition SRB assay; type: cell-based
Description: as §1

[5] = test system: MDA-MB-231 tumour xenografts; assay: MDA-MB-231 mouse xenograft breast cancer model, SPL8996, SPL9005 and SPL9006 study
Description: (§3) References to amounts dosed in mg/kg for the dendrimeric compounds are to the amounts of cabazitaxel that may theoretically be released by the dendrimers.
(§4) Each of the dendrimers was pre-weighed in glass vials and stored at 20° C. until use, and dissolved in saline immediately prior to dosing. Cabazitaxel was purchased from a commercial supplier.
(§5) Female Balb/c nude mice (age 7 weeks) were inoculated subcutaneously on the flank with 3.5×10^6 MDA-MB-231 cells in PBS:Matrigel (1:1). Mice were weighed and tumours measured twice weekly using electronic callipers. Tumour volume (mm^3) was calculated as length (mm)/2×width (mm)^2.
Mice received a small dish containing a food supplement (mixed with food dust) daily. The experiment was ended on day 150 or earlier if an ethical endpoint was met.

[6] = test system: MDA-MB-231 tumour xenografts; assay: MDA-MB-231 mouse xenograft breast cancer model, SPL9048 study
Description: as §3, §4, §5
Mice received a small dish containing a food supplement (mixed with food dust) daily. The experiment was ended on day 113 or earlier if an ethical endpoint was met.

[7] = Toxicity studies in rats (neutropenia, hematology, microscopic changes); conditions: 2.5 mg/kg
Description: References to amounts dosed in mg/kg for the dendrimeric compound are to the amounts of cabazitaxel that may theoretically be released by the dendrimer.

[8] = free cabazitaxel, triphasic PK model; cited from earlier work
A2780 = assay: IC50 using the MTT assay; type: cell-based; conditions: 72 hours
Description: (§2) The IC50 using the MTT assay [Wilson, Anne P. (2000). “Chapter 7: Cytotoxicity and viability”. In Masters, John R. W. Animal Cell Culture: A Practical Approach. Vol. 1 (3rd ed.). Oxford: Oxford University Press] was determined against various cancer cell lines after 72 hours.

A549 = assay: IC50 using the MTT assay; type: cell-based; conditions: 72 hours
Description: as §2

DU-145 = assay: IC50 using the MTT assay; type: cell-based; conditions: 72 hours
Description: as §2

H460 = assay: IC50 using the MTT assay; type: cell-based; conditions: 72 hours
Description: as §2

HCT-116 = assay: IC50 using the MTT assay; type: cell-based; conditions: 72 hours
Description: as §2

HT-29 = assay: IC50 using the MTT assay; type: cell-based; conditions: 72 hours
Description: as §2

MCF-7 = assay: IC50 using the MTT assay; type: cell-based; conditions: 72 hours
Description: as §2

PC-3 = assay: IC50 using the MTT assay; type: cell-based; conditions: 72 hours
Description: as §2

[9] = Particle sizing using Dynamic Light Scattering; type: physicochemical
[10] = Day 1, i.v. day 1, 8, 15, docetaxel 15 mg/kg, Exp 3 (b) 20 mg/kg, Exp 8 (c) […] mg/kg

BHALys[Lys]32[α-TDA-DTX]32[ε-PEG1100]32 [Example 8 (c)]
Water solubility of dendrimer [1]: 131 mg/mL
Equivalent drug solubility on dendrimer [1]: 41 mg/mL
Docetaxel release in plasma ([2]; 0.5 hours): 4.5 percentage of total docetaxel
Docetaxel release in plasma ([2]; 2.5 hours): 13.5 percentage of total docetaxel
Docetaxel release in plasma ([2]; 22 hours): 43 percentage of total docetaxel
GI50 (ES2 (Ovarian)): 12 nM
GI50 (H460 (Lung)): 7 nM
GI50 (PC-3 (Prostate)): 9.5 nM
Mean tumour Volumne mm^3 (sd) (MDA-MB-231 tumours; [10]): 111.73 (6.41), mm^3
Mean tumour Volumne mm^3 (sd) (MDA-MB-231 tumours; Day 9, same doses): 108.86 (9.31), mm^3
Mean tumour Volumne mm^3 (sd) (MDA-MB-231 tumours; Day 19, same doses): 30.59 (1.64), mm^3
Mean tumour Volumne mm^3 (sd) (MDA-MB-231 tumours; Day 29, same doses): 11.58 (1.2), mm^3
Mean tumour Volumne mm^3 (sd) (MDA-MB-231 tumours; Day 40, same doses): 5.75 (0.92), mm^3
Mean tumour Volumne mm^3 (sd) (MDA-MB-231 tumours; Day 61, same doses): 4 (0), mm^3
Mean tumour Volumne mm^3 (sd) (MDA-MB-231 tumours; Day 81, same doses): 0.5 (0), mm^3
Mean tumour Volumne mm^3 (sd) (MDA-MB-231 tumours; Day 100, same doses): 1.67 (0.74), mm^3
Mean tumour Volumne mm^3 (sd) (MDA-MB-231 tumours; Day 120, same doses): 16.2 (10.24), mm^3
Mean Tumour Weights (g) (sd) [3]: 0.033 g
plasma half-life [4]: approximately 30 hour

BHALys[Lys]32[α-DGA-DTX]32[ε-PEG1100]32 [Example 3 (b)]
Water solubility of dendrimer [1]: 89 mg/mL
Equivalent drug solubility on dendrimer [1]: 23 mg/mL
Docetaxel release in plasma ([2]; 0.5 hours): 8.5 percentage of total docetaxel
Docetaxel release in plasma ([2]; 2.5 hours): 32.5 percentage of total docetaxel
Docetaxel release in plasma ([2]; 22 hours): 73 percentage of total docetaxel
GI50 (A2058 (Melanoma)): 2 nM
GI50 (A549 (Lung)): 3.5 nM
GI50 (DU145 (Prostate)): 4 nM
GI50 (ES2 (Ovarian)): 4 nM
GI50 (H460 (Lung)): 8 nM
GI50 (HCT116 (Colon)): 1 nM
GI50 (HT29 (Colon)): 2 nM
GI50 (MCAS (Ovarian)): 7 nM
GI50 (MDA-MB-231 (Breast)): 0.5 nM
GI50 (PC-3 (Prostate)): 4.5 nM
Mean tumour Volumne mm^3 (sd) (MDA-MB-231 tumours; [10]): 111.74 (6.65), mm^3
Mean tumour Volumne mm^3 (sd) (MDA-MB-231 tumours; Day 9, same doses): 84.02 (6.33), mm^3
Mean tumour Volumne mm^3 (sd) (MDA-MB-231 tumours; Day 19, same doses): 28.26 (1.91), mm^3
Mean tumour Volumne mm^3 (sd) (MDA-MB-231 tumours; Day 29, same doses): 10.46 (0.5), mm^3
Mean tumour Volumne mm^3 (sd) (MDA-MB-231 tumours; Day 40, same doses): 5.92 (1.31), mm^3
Mean tumour Volumne mm^3 (sd) (MDA-MB-231 tumours; Day 61, same doses): 4 (0), mm^3
Mean tumour Volumne mm^3 (sd) (MDA-MB-231 tumours; Day 81, same doses): 0.5 (0), mm^3
Mean tumour Volumne mm^3 (sd) (MDA-MB-231 tumours; Day 100, same doses): 0.5 (0), mm^3
Mean tumour Volumne mm^3 (sd) (MDA-MB-231 tumours; Day 120, same doses): 0.37 (0.12), mm^3
Mean Tumour Weights (g) (sd) [3]: 0.020 g

N3-PEG24-CO(NPN)[Lys]32[α-TDA-Cabazitaxel]32†[ε-PEG˜1100]32‡ [SPL8996]
tumour regrowth at the conclusion of the study on day 150 ([5]; 28 mg/kg): one tumour in the SPL-8996 group which began to regrow by day 77

BHALys[Lys]32[α-4-HSBA-Cp-DTX]32[ε-PEG1100]32 [Example 4 (c)]
Water solubility of dendrimer [1]: 109 mg/mL
Equivalent drug solubility on dendrimer [1]: 22 mg/mL
Docetaxel release in plasma ([2]; 0.5 hours): 1.5 percentage of total docetaxel
Docetaxel release in plasma ([2]; 2.5 hours): 10 percentage of total docetaxel
Docetaxel release in plasma ([2]; 22 hours): 17.5 percentage of total docetaxel
GI50 (A2058 (Melanoma); A2058, 72 hours, equivalent drug loading, average of duplicate): 8 nM
GI50 (A549 (Lung); A549, 72 hours, equivalent drug loading, average of duplicate): 8.5 nM
GI50 (DU145 (Prostate); DU145, 72 hours, equivalent drug loading, average of duplicate): 12 nM
GI50 (ES2 (Ovarian); ES2, 72 hours, equivalent drug loading, average of duplicate): 8.6 nM
GI50 (H460 (Lung); H460, 72 hours, equivalent drug loading, average of duplicate): 11 nM
GI50 (HCT116 (Colon); HCT116, 72 hours, equivalent drug loading, average of duplicate): 9 nM
GI50 (HT29 (Colon); HT29, 72 hours, equivalent drug loading, average of duplicate): 9.5 nM
GI50 (MCAS (Ovarian); MCAS, 72 hours, equivalent drug loading, average of duplicate): 20 nM
GI50 (MDA-MB-231 (Breast); MDA-MB-231, 72 hours, equivalent drug loading, average of duplicate): 6.5 nM
GI50 (PC-3 (Prostate); PC-3, 72 hours, equivalent drug loading, average of duplicate): 21.5 nM
Mean Tumour Weights (g) (sd) [3]: 0.079 g

BHALys[Lys]32[α-DGA-Cabazitaxel]32†[ε-PEG˜2100]32‡ [SPL9048]
antitumour efficacy (tumour response) ([6]; FIG. 1, i.v. days 1, 8 and 15, SPL-9048 9 and 10 mg/kg): complete tumour regression
tolerability ([6]; FIG. 2, body weight): overall well tolerated
survival compared with cabazitaxel ([6]; both doses (9 and 10 mg/kg)): significantly extended survival beyond that of cabazitaxel
toxicity compared to Jevtana®/cabazitaxel [7]: Reduced toxicity

CO[C@H]1C(=O)[C@]2(C)[C@@H](OC)C[C@H]3OC[C@@]3(OC(C)=O)[C@H]2[C@H](OC(=O)c2ccccc2)[C@]2(O)C[C@H](OC(=O)[C@H](O)[C@@H](NC(=O)OC(C)(C)C)c3ccccc3)C(C)=C1C2(C)C [cabazitaxel, reference compound]
initial-phase half-life [8]: 4 min
intermediate-phase half-life [8]: 2 h
terminal-phase half-life [8]: 95 h
tumours reaching an ethical tumour volume endpoint by day 98 ([6]; cabazitaxel 9 mg/kg): 9 of 10
tumour regrowth evident by day ([6]; cabazitaxel 9 mg/kg, days 1, 8 and 15): ≤ 43 days
resumption of tumour growth by day ([5]; cabazitaxel 10 mg/kg, days 1, 8 and 22): ≤ 60 days

BHALys[Lys]32[α-TDA-DTX]32[ε-PolyPEG2000]32 [Example 19]
Water solubility of dendrimer [1]: 477 mg/mL
Fold increase in drug solubility ([1]; equivalent drug solubility divided by solubility of the drug): 21900
Equivalent drug solubility on dendrimer [1]: 109 mg/mL
IC50 (A2780): 6.3 nM
IC50 (A549): 7.7 nM
IC50 (DU-145): 15.5 nM
IC50 (H460): 23.7 nM
IC50 (HCT-116): 6.5 nM
IC50 (HT-29): 5.9 nM
IC50 (MCF-7): 6.3 nM
IC50 (PC-3): 7.4 nM
particle size, range of concentration dependent averages [9]: 10.9-15.5 nm
